PubChem BioAssay (NCI)
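Abbreviation: GI50, concentration required for 50% inhibition of growth. TGI: total growth inhibition.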

How the values were obtained:
Experiment in all cases: NCI anticancer screen, dose series, 384-well format
MCF7 breast = tested on: MCF7 breast
SF-539 CNS = tested on: SF-539 CNS
MDA-MB-231 breast = tested on: MDA-MB-231 breast
PC-3 prostate = tested on: PC-3 prostate
HS 578T breast = tested on: HS 578T breast
IGROV1 ovarian = tested on: IGROV1 ovarian
786-0 renal = tested on: 786-0 renal
SK-MEL-2 melanoma = tested on: SK-MEL-2 melanoma
OVCAR-5 ovarian = tested on: OVCAR-5 ovarian
SK-MEL-28 melanoma = tested on: SK-MEL-28 melanoma
SNB-19 CNS = tested on: SNB-19 CNS
TK-10 renal = tested on: TK-10 renal
NCI/ADR-RES ovarian = tested on: NCI/ADR-RES ovarian
HCT-116 colon = tested on: HCT-116 colon
HOP-62 NSCLC = tested on: HOP-62 NSCLC
A498 renal = tested on: A498 renal
T-47D breast = tested on: T-47D breast
NCI-H522 lung = tested on: NCI-H522 lung
CAKI-1 renal = tested on: CAKI-1 renal
SNB-75 CNS = tested on: SNB-75 CNS
SK-MEL-5 melanoma = tested on: SK-MEL-5 melanoma
SN12C renal = tested on: SN12C renal
DU-145 prostate = tested on: DU-145 prostate
BT-549 breast = tested on: BT-549 breast
UACC-257 melanoma = tested on: UACC-257 melanoma
MDA-MB-435 melanoma = tested on: MDA-MB-435 melanoma
OVCAR-8 ovarian = tested on: OVCAR-8 ovarian
SW-620 colon = tested on: SW-620 colon
EKVX NSCLC = tested on: EKVX NSCLC
SK-OV-3 ovarian = tested on: SK-OV-3 ovarian
K-562 leukemia = tested on: K-562 leukemia
MOLT-4 leukemia = tested on: MOLT-4 leukemia
ACHN renal = tested on: ACHN renal
MALME-3M melanoma = tested on: MALME-3M melanoma
HT29 colon = tested on: HT29 colon
SF-295 CNS = tested on: SF-295 CNS
HL-60(TB) leukemia = tested on: HL-60(TB) leukemia
SR leukemia = tested on: SR leukemia
HCT-15 colon = tested on: HCT-15 colon
NCI-H23 lung = tested on: NCI-H23 lung
KM12 colon = tested on: KM12 colon
COLO 205 colon = tested on: COLO 205 colon
HOP-92 NSCLC = tested on: HOP-92 NSCLC
U251 glioblastoma = tested on: U251 glioblastoma
CCRF-CEM leukemia = tested on: CCRF-CEM leukemia
LOX IMVI melanoma = tested on: LOX IMVI melanoma
NCI-H460 NSCLC = tested on: NCI-H460 NSCLC

Compound: Cc1ccc(S(=O)(=O)Cc2nc(-c3ccc(C(=O)NCc4cccnc4)cc3)oc2C)cc1
- GI50 (MCF7 breast): 14.2 nM
- TGI (MCF7 breast): 29.1 nM
- GI50 (SF-539 CNS): < 10 nM
- TGI (SF-539 CNS): < 10 nM
- GI50 (MDA-MB-231 breast): 39.4 nM
- TGI (MDA-MB-231 breast): 149 nM
- GI50 (PC-3 prostate): < 10 nM
- TGI (PC-3 prostate): < 10 nM
- GI50 (HS 578T breast): < 10 nM
- TGI (HS 578T breast): < 10 nM
- GI50 (IGROV1 ovarian): 11.2 nM
- TGI (IGROV1 ovarian): 23.7 nM
- GI50 ([…]-0 renal): < 10 nM
- TGI (786-0 renal): 16.1 nM
- GI50 (SK-MEL-2 melanoma): < 10 nM
- TGI (SK-MEL-2 melanoma): < 10 nM
- GI50 (OVCAR-5 ovarian): < 10 nM
- TGI (OVCAR-5 ovarian): < 10 nM
- GI50 (SK-MEL-28 melanoma): 17.2 nM
- TGI (SK-MEL-28 melanoma): 34.3 nM
- GI50 (SNB-19 CNS): < 10 nM
- TGI (SNB-19 CNS): < 10 nM
- GI50 (TK-10 renal): 19.1 nM
- TGI (TK-10 renal): 35.7 nM
- GI50 (NCI/ADR-RES ovarian): 15.2 nM
- TGI (NCI/ADR-RES ovarian): 29.4 nM
- GI50 (HCT-116 colon): < 10 nM
- TGI (HCT-116 colon): < 10 nM
- GI50 (HOP-62 NSCLC): < 10 nM
- TGI (HOP-62 NSCLC): 11.9 nM
- GI50 (A498 renal): 56.9 nM
- TGI (A498 renal): 691 nM
- GI50 (T-47D breast): < 10 nM
- TGI (T-47D breast): < 10 nM
- GI50 (NCI-H522 lung): < 10 nM
- TGI (NCI-H522 lung): < 10 nM
- GI50 (CAKI-1 renal): < 10 nM
- TGI (CAKI-1 renal): 15.5 nM
- GI50 (SNB-75 CNS): 23.9 nM
- TGI (SNB-75 CNS): 53.2 nM
- GI50 (SK-MEL-5 melanoma): < 10 nM
- TGI (SK-MEL-5 melanoma): 20.8 nM
- GI50 (SN12C renal): < 10 nM
- TGI (SN12C renal): < 10 nM
- GI50 (DU-145 prostate): 15.9 nM
- TGI (DU-145 prostate): 30.8 nM
- GI50 (BT-549 breast): 17.9 nM
- TGI (BT-549 breast): 32.7 nM
- GI50 (UACC-257 melanoma): 27.5 nM
- TGI (UACC-257 melanoma): 59.6 nM
- GI50 (MDA-MB-435 melanoma): 13.2 nM
- TGI (MDA-MB-435 melanoma): 26.1 nM
- GI50 (OVCAR-8 ovarian): < 10 nM
- TGI (OVCAR-8 ovarian): < 10 nM
- GI50 (SW-620 colon): < 10 nM
- TGI (SW-620 colon): < 10 nM
- GI50 (EKVX NSCLC): < 10 nM
- TGI (EKVX NSCLC): 25.1 nM
- GI50 (SK-OV-3 ovarian): < 10 nM
- TGI (SK-OV-3 ovarian): < 10 nM
- GI50 (K-562 leukemia): < 10 nM
- TGI (K-562 leukemia): < 10 nM
- GI50 (MOLT-4 leukemia): < 10 nM
- TGI (MOLT-4 leukemia): < 10 nM
- GI50 (ACHN renal): 12.5 nM
- TGI (ACHN renal): 28.7 nM
- GI50 (MALME-3M melanoma): 19.1 nM
- TGI (MALME-3M melanoma): 43.8 nM
- GI50 (HT29 colon): 18.9 nM
- TGI (HT29 colon): 37.9 nM
- GI50 (SF-295 CNS): 14.1 nM
- TGI (SF-295 CNS): 28 nM
- GI50 (HL-60(TB) leukemia): < 10 nM
- TGI (HL-60(TB) leukemia): < 10 nM
- GI50 (SR leukemia): 18.1 nM
- TGI (SR leukemia): 33.3 nM
- GI50 (HCT-15 colon): < 10 nM
- TGI (HCT-15 colon): 16.3 nM
- GI50 (NCI-H23 lung): < 10 nM
- TGI (NCI-H23 lung): 20.2 nM
- GI50 (KM12 colon): < 10 nM
- TGI (KM12 colon): 11.9 nM
- GI50 (COLO 205 colon): < 10 nM
- TGI (COLO 205 colon): < 10 nM
- GI50 (HOP-92 NSCLC): 22 nM
- TGI (HOP-92 NSCLC): 52.6 nM
- GI50 (U251 glioblastoma): < 10 nM
- TGI (U251 glioblastoma): < 10 nM
- GI50 (CCRF-CEM leukemia): < 10 nM
- TGI (CCRF-CEM leukemia): < 10 nM
- GI50 (LOX IMVI melanoma): 17.1 nM
- TGI (LOX IMVI melanoma): 78.7 nM
- GI50 (NCI-H460 NSCLC): 21.6 nM
- TGI (NCI-H460 NSCLC): 47.3 nM
